Assay type in all cases: cell-based
Experiment [1] concerns Escherichia coli ATCC25922. Kind of experiment: MIC, microbroth dilution (NCCLS). The settings on record: rifS strain, Cation-Adjusted Mueller-Hinton Broth, 37° C., read-out: Antimicrobial activity (MIC).
The subject of experiment [2] is Mycobacterium smegmatis ATCC700084. Description: MIC, microbroth dilution (NCCLS). As to conditions: Mycolicibacterium smegmatis, rifS strain, Middlebrook Broth plus ADC Enrichment, 37° C., read-out: Antimicrobial activity (MIC).
Experiment [3] has as its system Streptococcus pneumoniae ATCC6303. Description: MIC, microbroth dilution (NCCLS). As to conditions: rifS strain, THY Broth with 1 mg/mL catalase, 5% CO2, 37° C., read-out: Antimicrobial activity (MIC).
In experiment [4] the test system is Staphylococcus aureus ATCC29213. Description: MIC, microbroth dilution (NCCLS). The settings on record: rifS strain, Cation-Adjusted Mueller-Hinton Broth, 37° C., read-out: Antimicrobial activity (MIC).
Experiment [5] concerns Enterococcus faecalis ATCC29212. Kind of experiment: MIC, microbroth dilution (NCCLS). As to conditions: rifS strain, BHI Broth, 37° C., read-out: Antimicrobial activity (MIC).
Experiment [6] relates to Staphylococcus aureus ATCC29213 rpoB^H418Y. Kind of experiment: microbe, parasite or virus in culture. The settings on record: ATCC29213, read-out: Antimicrobial activity (MIC). In short, it runs like this: (§1)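 Tested organisms were S. aureus ATCC 29213 rpoB mutants (D417Y, H418Y; rifampin-resistant) and double gyrase/topoisomerase IV mutant EN1252a (quinolone-resistant). Growth in cation-adjusted Mueller-Hinton broth at 37 °C; MIC by microbroth dilution per NCCLS guidelines.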

Experiment [7] relates to Staphylococcus aureus EN1252a gyrA^S84L grlA^S80F. Kind of experiment: microbe, parasite or virus in culture. As to conditions: read-out: Antimicrobial activity (MIC). In short, it runs like this:
as §1

Experiment [8] has as its system Staphylococcus aureus ATCC29213 rpoB^D417Y. Description: microbe, parasite or virus in culture. As to conditions: ATCC29213, read-out: Antimicrobial activity (MIC). In short, it runs like this: as §1
For experiment [9], the system named is Haemophilus influenzae ATCC10211. Description: MIC, microbroth dilution (NCCLS). The settings on record: rifS strain, BHI Broth with NAD and hematin, 37° C., read-out: Antimicrobial activity (MIC).
Experiment [10] relates to Staphylococcus epidermidis ATCC12228. Kind of experiment: MIC, microbroth dilution (NCCLS). The settings on record: rifS strain, Cation-Adjusted Mueller-Hinton Broth, 37° C., read-out: Antimicrobial activity (MIC).
Experiment [11] concerns Streptococcus pyogenes ATCC19615. Kind of experiment: MIC, microbroth dilution (NCCLS). As to conditions: rifS strain, THY Broth, 37° C., read-out: Antimicrobial activity (MIC).

Values after ≈ are worked out from the molar mass of the structure shown.

The record followed here is patent publication US7247634B2, “Rifamycin derivatives effective against drug-resistant microbes” (Cumbre Pharmaceuticals Inc., priority 2004, dated 2007).

In the case of `CO[C@H]1/C=C/O[C@@]2(C)Oc3c(C)c(O)c4c(c3C2=O)C(=O)C(NCC2CN(c3cc5c(cc3F)c(=O)c(C(=O)O)cn5C3CC3)C2)=C(NC(=O)/C(C)=C\C=C\[C@H](C)[C@H](O)[C@@H](C)[C@@H](O)[C@@H](C)[C@H](OC(C)=O)[C@@H]1C)C4=O` [Example 25, 3-[1-(3-Carboxy-1-cyclopropyl-6-fluoro-4-oxo-1,4-dihydroquinolin-7-yl)azetidin-3-methylamino)rifamycin S], the MIC lay within 0.125 to 8 µg/mL (≈ 0.122 to 7.8 µM) in experiment [1]; 0.5 to 64 µg/mL in experiment [2]; 0.008 to 0.125 µg/mL (≈ 0.0078 to 0.122 µM) in experiment [3]; 0.004 to 0.5 µg/mL (≈ 0.0039 to 0.488 µM) in experiment [4]; 2 to 32 µg/mL (≈ 1.95 to 31.2 µM) in experiment [5]; 0.06 to 16 µg/mL (≈ 0.0585 to 15.6 µM) in experiment [6]. Moreover, the MIC in [7] was 0.004 to 0.5 µg/mL (≈ 0.0039 to 0.488 µM); in experiment [8], 0.06 to 32 µg/mL (≈ 0.0585 to 31.2 µM); in experiment [9] it was 0.125 to 2 µg/mL (≈ 0.122 to 1.95 µM); in experiment [10], 0.008 to 0.063 µg/mL (≈ 0.0078 to 0.0615 µM); in experiment [11] it was 0.008 to 0.063 µg/mL (≈ 0.0078 to 0.0615 µM).

`COc1c(N2CCN(C3=C4NC(=O)/C(C)=C\C=C\[C@H](C)[C@H](O)[C@@H](C)[C@@H](O)[C@@H](C)[C@H](OC(C)=O)[C@H](C)[C@@H](OC)/C=C/O[C@@]5(C)Oc6c(C)c(O)c(c(c6C5=O)C3=O)C4=O)CC2)c(F)cc2c(=O)c(C(=O)O)cn(C3CC3)c12` [Example 26, 3-[4-(3-Carboxy-1-cyclopropyl-6-fluoro-8-methoxy-4-oxo-1,4-dihydroquinolin-7-yl)-piperazin-1-yl]rifamycin S]: the MIC was in the range of 0.125 to 8 µg/mL (≈ 0.118 to 7.58 µM) in [1]; 0.5 to 64 µg/mL in experiment [2]; 0.008 to 0.125 µg/mL (≈ 0.00758 to 0.118 µM) in experiment [3]; 0.004 to 0.5 µg/mL (≈ 0.00379 to 0.474 µM) in experiment [4]; 2 to 32 µg/mL (≈ 1.9 to 30.3 µM) in experiment [5]; 0.06 to 16 µg/mL (≈ 0.0569 to 15.2 µM) in experiment [6]. Moreover, the MIC fell in the range of 0.004 to 0.5 µg/mL (≈ 0.00379 to 0.474 µM) in experiment [7]; 0.06 to 32 µg/mL (≈ 0.0569 to 30.3 µM) in experiment [8]; 0.125 to 2 µg/mL (≈ 0.118 to 1.9 µM) in experiment [9]; 0.008 to 0.063 µg/mL (≈ 0.00758 to 0.0597 µM) in experiment [10]; 0.008 to 0.063 µg/mL (≈ 0.00758 to 0.0597 µM) in experiment [11].

As to `COc1c(N2CCN(C3CCN(C4=C5NC(=O)/C(C)=C\C=C\[C@H](C)[C@H](O)[C@@H](C)[C@@H](O)[C@@H](C)[C@H](OC(C)=O)[C@H](C)[C@@H](OC)/C=C/O[C@@]6(C)Oc7c(C)c(O)c(c(c7C6=O)C4=O)C5=O)CC3)CC2)c(F)cc2c(=O)c(C(=O)O)cn(C3CC3)c12` [Example 31, 3-{4-[1-(3-Carboxy-1-cyclopropyl-6-fluoro-8-methoxy-4-oxo-1,4-dihydroquinolin-7-yl)-piperazin-4-yl]-piperidin-1-yl}rifamycin S], the MIC in [1] was in the range of 0.125 to 8 µg/mL (≈ 0.11 to 7.03 µM); in [2] it was 0.5 to 64 µg/mL; in experiment [3], 0.008 to 0.125 µg/mL (≈ 0.00703 to 0.11 µM); in [4], 0.004 to 0.5 µg/mL (≈ 0.00351 to 0.439 µM); in experiment [5] it was 2 to 32 µg/mL (≈ 1.76 to 28.1 µM); in [6] it was 0.06 to 16 µg/mL (≈ 0.0527 to 14.1 µM). Moreover, the MIC in experiment [7] was in the range of 0.004 to 0.5 µg/mL (≈ 0.00351 to 0.439 µM); in [8] it was 0.06 to 32 µg/mL (≈ 0.0527 to 28.1 µM); in [9], 0.125 to 2 µg/mL (≈ 0.11 to 1.76 µM); in [10], 0.008 to 0.063 µg/mL (≈ 0.00703 to 0.0553 µM); in experiment [11], 0.008 to 0.063 µg/mL (≈ 0.00703 to 0.0553 µM).

Turning to `COc1c(N2CC(NC3CCN(C4=C5NC(=O)/C(C)=C\C=C\[C@H](C)[C@H](O)[C@@H](C)[C@@H](O)[C@@H](C)[C@H](OC(C)=O)[C@H](C)[C@@H](OC)/C=C/O[C@@]6(C)Oc7c(C)c(O)c(c(c7C6=O)C4=O)C5=O)CC3)C2)c(F)cc2c(=O)c(C(=O)O)cn(C3CC3)c12` [Example 33, 3-{4-[1-(3-Carboxy-1-cyclopropyl-6-fluoro-8-methoxy-4-oxo-1,4-dihydroquinolin-7-yl)-azetidin-3-ylamino]-piperidin-1-yl}rifamycin S], the MIC in experiment [1] fell in the range of 0.125 to 8 µg/mL (≈ 0.111 to 7.12 µM); in [2], 0.5 to 64 µg/mL; in experiment [3], 0.008 to 0.125 µg/mL (≈ 0.00712 to 0.111 µM); in experiment [4], 0.004 to 0.5 µg/mL (≈ 0.00356 to 0.445 µM); in [5], 2 to 32 µg/mL (≈ 1.78 to 28.5 µM); in [6] it was 0.06 to 16 µg/mL (≈ 0.0534 to 14.2 µM). In addition, the MIC in [7] is 0.004 to 0.5 µg/mL (≈ 0.00356 to 0.445 µM); in [8], 0.06 to 32 µg/mL (≈ 0.0534 to 28.5 µM); in [9], 0.125 to 2 µg/mL (≈ 0.111 to 1.78 µM); in experiment [10] it was 0.008 to 0.063 µg/mL (≈ 0.00712 to 0.056 µM); in experiment [11], 0.008 to 0.063 µg/mL (≈ 0.00712 to 0.056 µM).
